Measurements as given in PMC7168207, “Dibasic Derivatives of Phenylcarbamic Acid as Prospective Antibacterial Agents Interacting with Cytoplasmic Membrane” (Antibiotics, 2020).
Marks after values point to notes of the source that are not given here.

Experiments:
MRSA SA 3202 = experiment: synergy with antibiotics (FIC index, checkerboard); format: cell-based, Staphylococcus aureus; conditions: in the combination of that line
Source text: Representatives from various classes were chosen in order to study the potential difference in synergistic activity according to the diverse mechanisms of action and resistance of these drugs. The method of minimal fractional inhibitory concentration (FIC) index (FICI) in a microtitration plate was used. FICI ≤ 0.5 means synergy; 0.5 < FICI < 1 means additivity; 1 ≤ FICI < 4 means indifference; and FICI ≥ 4 means antagonism.
For synergy effect study, a method of fractional inhibitory concentration was used. […] Raw H was used for the evaluation of MIC(A); column 12 was used for evaluation of MIC(B). The plate was inoculated by the bacterial suspension to reach final concentration of 5 × 10^5 CFU/mL in the wells. The fractional inhibitory concentration (FIC) index was calculated using the concentrations in the first nonturbid (clear) well found in each row and column along the turbidity/nonturbidity interface. To interpret the combined effect, the lowest FICI was used. A ΣFIC ≤ 0.5 means synergy; 0.5 < ΣFIC < 1 means additivity; 1 ≤ ΣFIC < 4 means indifference; and ΣFIC ≥ 4 means antagonism. The tests were made in duplicate, and the results were averaged.

E. faecalis ATCC 29212 = experiment: time-kill study; format: cell-based, Enterococcus faecalis; conditions: EF
Source text: (§1) Time-kill studies are used to evaluate the dynamics of antibacterial activity. As mentioned above, a pre-test to determine minimum bactericidal concentration (MBC) by sub-cultivation of aliquots on agar was made (see Section 3.4). […] Time-kill studies were made with methicillin-susceptible S. aureus ATCC 29213 and methicillin-resistant MRSA 63718, vancomycin-susceptible E. faecalis ATCC 29212, and all three VRE isolates. Vancomycin was used as a control (Table 6).
(§2) The method of time-kill curves was used to study the bactericidal effect of selected compounds. […] The experiment was performed with S. aureus ATCC 29213, MRSA 63718, E. faecalis ATCC 29212, and all VRE isolates. […] The tubes were inoculated by bacterial inoculum in the exponential phase of growth to get a final concentration of 7.5 × 10^6 CFU/mL. The tubes were incubated statically at 37 °C. Immediately after inoculation and after 4, 6, 8, and 24 h, 100 µL of the sample was serially diluted (1:10) in PBS. Then, 2 × 20 µL from each dilution were put onto a Mueller–Hinton agar plate and cultivated at 37 °C for 24 h. After incubation, CFUs of dilutions containing 5–50 colonies were counted. Results were expressed as a decrease of log10(CFU) in each time compared to the starting inoculum. Bactericidal effect is defined as a −3log decrease of CFU/mL compared to the growth control in time 0. The test was made in duplicate on two separate occasions, and the results were averaged. The growth curves with error bars are shown in Figures S1 and S2 in Supplementary Materials.

VRE 342B = experiment: time-kill study; format: cell-based, Enterococcus faecalis; conditions: VRE1
Source text: as §1, §2

VRE 368 = experiment: time-kill study; format: cell-based, Enterococcus faecalis; conditions: VRE2
Source text: as §1, §2

VRE 725B = experiment: time-kill study; format: cell-based, Enterococcus faecalis; conditions: VRE3
Source text: as §1, §2

## CCCCCCCOc1cccc(NC(=O)OC(CN(CCC)CCC)CN2CCCC2)c1.Cl.Cl (stereo not shown) [1h, 1-[3-(Dipropylammonio)-2-({[3-(heptyloxy)phenyl]carbamoyl}oxy)propyl]pyrrolidinium dichloride]
MRSA SA 3202
  concentrations of the tested compound/clinically used antibiotic providing additivity or synergy: 4 µg/mL
E. faecalis ATCC 29212; 1 × MIC, 4 h
  Log10 Difference in CFU/mL from Inoculum: −0.64 log10 CFU/mL
E. faecalis ATCC 29212; 1 × MIC, 6 h
  Log10 Difference in CFU/mL from Inoculum: 0.16 log10 CFU/mL
E. faecalis ATCC 29212; 1 × MIC, 8 h
  Log10 Difference in CFU/mL from Inoculum: 0.24 log10 CFU/mL
E. faecalis ATCC 29212; 1 × MIC, 24 h
  Log10 Difference in CFU/mL from Inoculum: 0.34 log10 CFU/mL
E. faecalis ATCC 29212; 2 × MIC, 4 h
  Log10 Difference in CFU/mL from Inoculum: −1.87 log10 CFU/mL
E. faecalis ATCC 29212; 2 × MIC, 6 h
  Log10 Difference in CFU/mL from Inoculum: −1.36 log10 CFU/mL
E. faecalis ATCC 29212; 2 × MIC, 8 h
  Log10 Difference in CFU/mL from Inoculum: −0.86 log10 CFU/mL
E. faecalis ATCC 29212; 2 × MIC, 24 h
  Log10 Difference in CFU/mL from Inoculum: 0.42 log10 CFU/mL
E. faecalis ATCC 29212; 4 × MIC, 4 h
  Log10 Difference in CFU/mL from Inoculum: −2.57 * log10 CFU/mL
E. faecalis ATCC 29212; 4 × MIC, 6 h
  Log10 Difference in CFU/mL from Inoculum: −2.23 * log10 CFU/mL
E. faecalis ATCC 29212; 4 × MIC, 8 h
  Log10 Difference in CFU/mL from Inoculum: −1.62 log10 CFU/mL
E. faecalis ATCC 29212; 4 × MIC, 24 h
  Log10 Difference in CFU/mL from Inoculum: 0.49 log10 CFU/mL
VRE 342B; 1 × MIC, 4 h
  Log10 Difference in CFU/mL from Inoculum: 0.07 log10 CFU/mL
VRE 342B; 1 × MIC, 6 h
  Log10 Difference in CFU/mL from Inoculum: 1.08 log10 CFU/mL
VRE 342B; 1 × MIC, 8 h
  Log10 Difference in CFU/mL from Inoculum: −0.08 log10 CFU/mL
VRE 342B; 1 × MIC, 24 h
  Log10 Difference in CFU/mL from Inoculum: 1.42 log10 CFU/mL
VRE 342B; 2 × MIC, 4 h
  Log10 Difference in CFU/mL from Inoculum: 0.09 log10 CFU/mL
VRE 342B; 2 × MIC, 6 h
  Log10 Difference in CFU/mL from Inoculum: 0.41 log10 CFU/mL
VRE 342B; 2 × MIC, 8 h
  Log10 Difference in CFU/mL from Inoculum: −0.02 log10 CFU/mL
VRE 342B; 2 × MIC, 24 h
  Log10 Difference in CFU/mL from Inoculum: 0.47 log10 CFU/mL
VRE 342B; 4 × MIC, 4 h
  Log10 Difference in CFU/mL from Inoculum: −0.78 log10 CFU/mL
VRE 342B; 4 × MIC, 6 h
  Log10 Difference in CFU/mL from Inoculum: −0.99 log10 CFU/mL
VRE 342B; 4 × MIC, 8 h
  Log10 Difference in CFU/mL from Inoculum: −0.66 log10 CFU/mL
VRE 342B; 4 × MIC, 24 h
  Log10 Difference in CFU/mL from Inoculum: 0.85 log10 CFU/mL
VRE 368; 1 × MIC, 4 h
  Log10 Difference in CFU/mL from Inoculum: 0.46 log10 CFU/mL
VRE 368; 1 × MIC, 6 h
  Log10 Difference in CFU/mL from Inoculum: 0.71 log10 CFU/mL
VRE 368; 1 × MIC, 8 h
  Log10 Difference in CFU/mL from Inoculum: 1.25 log10 CFU/mL
VRE 368; 1 × MIC, 24 h
  Log10 Difference in CFU/mL from Inoculum: 1.13 log10 CFU/mL
VRE 368; 2 × MIC, 4 h
  Log10 Difference in CFU/mL from Inoculum: 0.28 log10 CFU/mL
VRE 368; 2 × MIC, 6 h
  Log10 Difference in CFU/mL from Inoculum: 0.54 log10 CFU/mL
VRE 368; 2 × MIC, 8 h
  Log10 Difference in CFU/mL from Inoculum: −0.37 log10 CFU/mL
VRE 368; 2 × MIC, 24 h
  Log10 Difference in CFU/mL from Inoculum: 0.66 log10 CFU/mL
VRE 368; 4 × MIC, 4 h
  Log10 Difference in CFU/mL from Inoculum: −0.32 log10 CFU/mL
VRE 368; 4 × MIC, 6 h
  Log10 Difference in CFU/mL from Inoculum: 0.05 log10 CFU/mL
VRE 368; 4 × MIC, 8 h
  Log10 Difference in CFU/mL from Inoculum: 0.22 log10 CFU/mL
VRE 368; 4 × MIC, 24 h
  Log10 Difference in CFU/mL from Inoculum: 0.37 log10 CFU/mL
VRE 725B; 1 × MIC, 4 h
  Log10 Difference in CFU/mL from Inoculum: −0.70 log10 CFU/mL
VRE 725B; 1 × MIC, 6 h
  Log10 Difference in CFU/mL from Inoculum: 0.08 log10 CFU/mL
VRE 725B; 1 × MIC, 8 h
  Log10 Difference in CFU/mL from Inoculum: −0.05 log10 CFU/mL
VRE 725B; 1 × MIC, 24 h
  Log10 Difference in CFU/mL from Inoculum: 0.92 log10 CFU/mL
VRE 725B; 2 × MIC, 4 h
  Log10 Difference in CFU/mL from Inoculum: −1.81 log10 CFU/mL
VRE 725B; 2 × MIC, 6 h
  Log10 Difference in CFU/mL from Inoculum: −1.31 log10 CFU/mL
VRE 725B; 2 × MIC, 8 h
  Log10 Difference in CFU/mL from Inoculum: −0.81 log10 CFU/mL
VRE 725B; 2 × MIC, 24 h
  Log10 Difference in CFU/mL from Inoculum: 0.95 log10 CFU/mL
VRE 725B; 4 × MIC, 4 h
  Log10 Difference in CFU/mL from Inoculum: −1.75 * log10 CFU/mL
VRE 725B; 4 × MIC, 6 h
  Log10 Difference in CFU/mL from Inoculum: −0.76 log10 CFU/mL
VRE 725B; 4 × MIC, 8 h
  Log10 Difference in CFU/mL from Inoculum: −0.76 log10 CFU/mL
VRE 725B; 4 × MIC, 24 h
  Log10 Difference in CFU/mL from Inoculum: 1.08 log10 CFU/mL
